# Assay results as given in patent US20190002436A1, “RESPIRATORY SYNCYTIAL VIRUS INHIBITORS” (MEDIVIR AB, priority 2015, published 2019).
# Test system: RSV (Long)
# Experiment: RSV cytopathic effect (CPE)-based viral replication assay
# Type: cell-based, respiratory syncytial virus (RSV)
# Details: HEp-2 cells infected with RSV Long at MOI 0.015; 3 days at 37° C.; cell viability by CellTiter-Glo luminescence; read-out: EC50 (nm)
# Procedure: Example A: RSV Cytopathic Effect
# Compounds of the invention are initially tested in a cytopathic effect (CPE)-based viral replication assay using immortalized cells and a laboratory strain of RSV (Long). This assay evaluates the ability of a compound to inhibit viral replication.
# Assay plates are prepared by seeding 2,500 HEp-2 cells (ATCC) per well of a 384-well black clear-bottom plate (Greiner Bio-One) in 20 μL of assay media (defined as DMEM supplemented with 2% heat-inactivated fetal bovine serum and 1% Penicillin/Streptomycin). Assay plates are incubated overnight at 37° C. in an incubator containing 5% CO2. The following day, a 10-point serial dilution of test compound is prepared in DMSO. Compounds are subsequently diluted with assay media and 20 μL of diluted compound (containing 1.5% DMSO) is transferred to an assay plate for evaluation of antiviral activity.
# For the CPE assay, cells are infected at a Multiplicity of Infection (MOI) of 0.015 using 20 μL of RSV Long (ATCC) diluted in assay media. The DMSO concentration is constant throughout the assay plate, including the negative and positive controls. The assay plate is incubated for 3 days at 37° C. in an incubator containing 5% CO2. Cell viability is evaluated with the addition of 10 μL of CellTiter-Glo (ProMega). Luminescence is measured using an EnVision plate reader (Perkin Elmer). EC50 values are calculated using the raw data from the CPE assays.
row,EC50,SMILES
1,21 nM,"O=C1N(Cc2ncc3ccccc3c2-c2ccc(F)nc2)c2ccccc2C12CC(NCCF)C2 (single isomer, unassigned) [Example 87-1, 3-((2-fluoroethyl)amino)-1′-((4-(6-fluoropyridin-3-yl)isoquinolin-3-yl)methyl)spiro[cyclobutane-1,3′-indolin]-2′-one]"

# Same assay, conditions: human respiratory syncytial virus, HEp-2, 72 h, HEp-2 cells infected with RSV Long at MOI 0.015; 3 days at 37° C.; cell viability by CellTiter-Glo luminescence; read-out: EC50 (nm)
row,EC50,SMILES
1,6 nM,"N#Cc1ccc(-c2c(CN3C(=O)C4(CCN(C(=O)C(F)(F)F)CC4)c4ccncc43)ncc3ccccc23)cn1 [Example 66-2, 5-(3-((2′-Oxo-1-(2,2,2-trifluoroacetyl)spiro[piperidine-4,3′-pyrrolo[2,3-c]pyridin]-1′(2′H)-yl)methyl)isoquinolin-4-yl)picolinonitrile]"
2,2.8 nM,"CN(C)C(=O)c1ccc(-c2c(CN3C(=O)C4(CCN(C(=O)C5(N(C)C)CC5)CC4)c4ccncc43)ncc3ccccc23)cn1 [Example 119b, 5-(3-((1-(1-(dimethylamino)cyclopropanecarbonyl)-2′-oxospiro[piperidine-4,3′-pyrrolo[2,3-c]pyridin]-1′(2′H)-yl)methyl)isoquinolin-4-yl)-N,N-dimethylpicolinamide]"
3,7.2 nM,"O=C(N1CCOCC1)N1CC2(C1)C(=O)N(Cc1ncc3ccccc3c1-c1cccnc1)c1ccccc12 [Example 148b, 1-(morpholine-4-carbonyl)-1′-((4-(pyridin-3-yl)isoquinolin-3-yl)methyl)spiro[azetidine-3,3′-indolin]-2′-one]"
4,7.8 nM,"CS(=O)(=O)N1CCC2(CC1)C(=O)N(Cc1ncc3ccccc3c1-c1cnco1)c1cnccc12 [Example 159b, 1-(methylsulfonyl)-1′-((4-(oxazol-5-yl)isoquinolin-3-yl)methyl)spiro[piperidine-4,3′-pyrrolo[2,3-c]pyridin]-2′(1′H)-one]"
5,2.9 nM,"COC(=O)N1CC2(C1)C(=O)N(Cc1ncc3cc(Cl)ccc3c1-c1cccnc1)c1cnccc12 [Example 161c, methyl 1′-((7-chloro-4-(pyridin-3-yl)isoquinolin-3-yl)methyl)-2′-oxo-1′,2′-dihydrospiro[azetidine-3,3′-pyrrolo[2,3-c]pyridine]-1-carboxylate]"
6,1.8 nM,"COC(=O)N1CCC2(CC1)C(=O)N(Cc1ncc3cc(Cl)ccc3c1-c1ccncc1)c1cnccc12 [Example 165b, Methyl 1′-((7-chloro-4-(pyridin-4-yl)isoquinolin-3-yl)methyl)-2′-oxo-1′,2′-dihydrospiro[piperidine-4,3′-pyrrolo[2,3-c]pyridine]-1-carboxylate]"
7,4 nM,"COC(=O)N1CC2(C1)C(=O)N(Cc1ncc3ccccc3c1-c1ccc(C(N)C(F)(F)F)nc1)c1ccccc12 (stereo not drawn) [Example 157b, methyl 1′-((4-(6-(1-amino-2,2,2-trifluoroethyl)pyridin-3-yl)isoquinolin-3-yl)methyl)-2′-oxospiro[azetidine-3,3′-indoline]-1-carboxylate]"
8,6 nM,"O=C(C1CCNCC1)N1CC2(C1)C(=O)N(Cc1ncc3ccccc3c1-c1cccnc1)c1ccccc12 [Example 149b, 1-(Piperidine-4-carbonyl)-1′-((4-(pyridin-3-yl)isoquinolin-3-yl)methyl)spiro[azetidine-3,3′-indolin]-2′-one]"
9,> 1 nM,"CC(C)(C)c1ccc(-c2c(Cn3c(=O)n(C4CC4)c4ccncc43)ncc3ccccc23)cc1 [Example 51d, 3-((4-(4-(tert-butyl)phenyl)isoquinolin-3-yl)methyl)-1-cyclopropyl-1H-imidazo[4,5-c]pyridin-2(3H)-one]"

# Second part, the compound before the results:
row,SMILES,EC50
1,CS(=O)(=O)N1CCC2(CC1)C(=O)N(Cc1ncc3ccccc3c1-c1cc[nH]c1)c1cnccc12 [Example 2023],43 nM
2,NC(=O)c1ccc(-c2c(CN3C(=O)C4(CCN(C(=O)[C@@H](N)CO)CC4)c4ccncc43)ncc3ccccc23)cn1 [Example 2032],2.7 nM
3,"O=c1n(Cc2ncc3ccccc3c2CCCCO)c2cnccc2n1C1CN(S(=O)(=O)C2CC2)C1 [Example 34, 1-(1-(cyclopropylsulfonyl)azetidin-3-yl)-3-((4-(4-hydroxybutyl)isoquinolin-3-yl)methyl)-1H-imidazo[4,5-c]pyridin-2(3H)-one]",33 nM
4,"COC(=O)N1CCC(n2c(=O)n(Cc3ncc4ccccc4c3CCCC(F)(F)F)c3cnccc32)CC1 [Example 9b, methyl 4-(2-oxo-3-((4-(4,4,4-trifluorobutyl)isoquinolin-3-yl)methyl)-2,3-dihydro-1H-imidazo[4,5-c]pyridin-1-yl)piperidine-1-carboxylate]",4 nM
5,CS(=O)(=O)N1CC2(C1)C(=O)N(Cc1ncc3ccccc3c1-c1ccc(F)nc1)c1ccccc12 [Example 78],0.9 nM
6,CS(=O)(=O)N1CCC2(CC1)C(=O)N(Cc1ncc3ccccc3c1-c1cn[nH]c1)c1cnccc12 [Example 2029],2.6 nM
7,CS(=O)(=O)N1CCC2(CC1)C(=O)N(Cc1ncc3ccccc3c1-c1ccc(C3(N)COC3)nc1)c1cnccc12 [Example 2038],11 nM
8,"NC1(CC(=O)N2CC3(C2)C(=O)N(Cc2ncc4ccccc4c2-c2cccnc2)c2ccccc23)CC1 [Example 156, 1-(2-(1-aminocyclopropyl)acetyl)-1′-((4-(pyridin-3-yl)isoquinolin-3-yl)methyl)spiro[azetidine-3,3′-indolin]-2′-one]",13 nM
9,NC(=O)c1ccc(-c2c(CN3C(=O)C4(CCN(C(=O)C(N)C(F)(F)F)CC4)c4ccncc43)ncc3ccccc23)cn1 (stereo not drawn) [Example 2007],4 nM
10,"COC(=O)N1CCC(n2c(=O)n(Cc3ncc4cc(Cl)ccc4c3CCCCO)c3cnccc32)CC1 [Example 20, Methyl 4-(3-((7-chloro-4-(4-hydroxybutyl)isoquinolin-3-yl)methyl)-2-oxo-2,3-dihydro-1H-imidazo[4,5-c]pyridin-1-yl)piperidine-1-carboxylate]",8.5 nM
11,CC(C)(C)NC(=O)N1CC2(C1)C(=O)N(Cc1ncc3ccccc3c1-c1ccc(C#N)nc1)c1ccccc12 [Example 81],1.4 nM
12,CS(=O)(=O)N1CCC2(CC1)C(=O)N(Cc1ncc3cc(Cl)ccc3c1-c1ccncc1)c1cnccc12 [Example 2009],0.35 nM
13,NC1(C(=O)N2CCC3(CC2)C(=O)N(Cc2ncc4ccccc4c2-c2ccc(OC(F)(F)F)cc2)c2cnccc23)CC1 [Example 2036],23 nM
14,"O=c1n(Cc2ncc3ccccc3c2-c2ccc(O)nc2)c2ccccc2n1C1CC1 [Example 88, 1-Cyclopropyl-3-((4-(6-hydroxypyridin-3-yl)isoquinolin-3-yl)methyl)-1H-benzo[d]imidazol-2(3H)-one]",8.5 nM
15,"CNC1(C(=O)N2CCC3(CC2)C(=O)N(Cc2ncc4ccccc4c2-c2ccc(C#N)nc2)c2cnccc23)CC1 [Example 67, 5-(3-((1-(1-(Methylamino)cyclopropanecarbonyl)-2′-oxospiro[piperidine-4,3′-pyrrolo[2,3-c]pyridin]-1′(2′H)-yl)methyl)isoquinolin-4-yl)picolinonitrile]",8.2 nM
16,N#Cc1ccc(-c2c(CN3c4ccccc4[C@]4(C[C@H](O)C4)C3=O)ncc3ccccc23)cn1 [Example 82],11 nM
17,NC(=O)c1ccc(-c2c(CN3C(=O)C4(CCN(C(=O)[C@@H]5CC(F)(F)CN5)CC4)c4ccncc43)ncc3ccccc23)cn1 [Example 2011],21 nM
18,"NC1(C(=O)N2CCC3(CC2)C(=O)N(Cc2ncc4ccccc4c2CCCCO)c2cnccc23)CC1 [Example 39b, 1-(1-Aminocyclopropanecarbonyl)-1′-((4-(4-hydroxybutyl)isoquinolin-3-yl)methyl)spiro[piperidine-4,3′-pyrrolo[2,3-c]pyridin]-2′(1′H)-one]",35 nM
19,"NC(=O)N1CC2(C1)C(=O)N(Cc1ncc3ccccc3c1CCCCO)c1ccccc12 [Example 55, 1′-((4-(4-hydroxybutyl)isoquinolin-3-yl)methyl)-2′-oxospiro[azetidine-3,3′-indoline]-1-carboxamide]",4.6 nM
20,"COC(=O)N1CCC(n2c(=O)n(Cc3ncc4ccccc4c3CCCCO)c3cc(F)c(F)cc32)CC1 [Example 14c, methyl 4-(5,6-difluoro-3-((4-(4-hydroxybutyl)isoquinolin-3-yl)methyl)-2-oxo-2,3-dihydro-1H-benzo[d]imidazol-1-yl)piperidine-1-carboxylate]",75 nM
21,"NCC(=O)N1CCC2(CC1)C(=O)N(Cc1ncc3ccccc3c1-c1cccnc1)c1cnccc12 [Example 143, 1-(2-aminoacetyl)-1′-((4-(pyridin-3-yl)isoquinolin-3-yl)methyl)spiro[piperidine-4,3′-pyrrolo[2,3-c]pyridin]-2′(1′H)-one]",10 nM

# Same assay, conditions: human respiratory syncytial virus, HEp-2, 72 h, read-out: EC50 (nm)
row,SMILES,EC50
1,"CN1CC2(C1)C(=O)N(Cc1ncc3ccccc3c1CCCCO)c1ccccc12 [Example 41, 1′-((4-(4-Hydroxybutyl)isoquinolin-3-yl)methyl)-1-methylspiro[azetidine-3,3′-indolin]-2′-one]",660 nM
2,"COC(=O)N1CC2(C1)C(=O)N(Cc1ncc3ccccc3c1-c1ccc(C#N)c(F)c1)c1ccccc12 [Example 93, Methyl 1′-((4-(4-cyano-3-fluorophenyl)isoquinolin-3-yl)methyl)-2′-oxospiro[azetidine-3,3′-indoline]-1-carboxylate]",4.4 nM
